Experimental data from patent publication US20060148799A1, “Substituted p-phenyl carbamates” (Novo Nordisk A/S, priority 2003, published 2006).

Biological target: T1, Hormone-sensitive lipase (HSL) (Homo sapiens, UniProt Q05469)
T1 construct: made in house
T1 sequence (Q05469 1-1076): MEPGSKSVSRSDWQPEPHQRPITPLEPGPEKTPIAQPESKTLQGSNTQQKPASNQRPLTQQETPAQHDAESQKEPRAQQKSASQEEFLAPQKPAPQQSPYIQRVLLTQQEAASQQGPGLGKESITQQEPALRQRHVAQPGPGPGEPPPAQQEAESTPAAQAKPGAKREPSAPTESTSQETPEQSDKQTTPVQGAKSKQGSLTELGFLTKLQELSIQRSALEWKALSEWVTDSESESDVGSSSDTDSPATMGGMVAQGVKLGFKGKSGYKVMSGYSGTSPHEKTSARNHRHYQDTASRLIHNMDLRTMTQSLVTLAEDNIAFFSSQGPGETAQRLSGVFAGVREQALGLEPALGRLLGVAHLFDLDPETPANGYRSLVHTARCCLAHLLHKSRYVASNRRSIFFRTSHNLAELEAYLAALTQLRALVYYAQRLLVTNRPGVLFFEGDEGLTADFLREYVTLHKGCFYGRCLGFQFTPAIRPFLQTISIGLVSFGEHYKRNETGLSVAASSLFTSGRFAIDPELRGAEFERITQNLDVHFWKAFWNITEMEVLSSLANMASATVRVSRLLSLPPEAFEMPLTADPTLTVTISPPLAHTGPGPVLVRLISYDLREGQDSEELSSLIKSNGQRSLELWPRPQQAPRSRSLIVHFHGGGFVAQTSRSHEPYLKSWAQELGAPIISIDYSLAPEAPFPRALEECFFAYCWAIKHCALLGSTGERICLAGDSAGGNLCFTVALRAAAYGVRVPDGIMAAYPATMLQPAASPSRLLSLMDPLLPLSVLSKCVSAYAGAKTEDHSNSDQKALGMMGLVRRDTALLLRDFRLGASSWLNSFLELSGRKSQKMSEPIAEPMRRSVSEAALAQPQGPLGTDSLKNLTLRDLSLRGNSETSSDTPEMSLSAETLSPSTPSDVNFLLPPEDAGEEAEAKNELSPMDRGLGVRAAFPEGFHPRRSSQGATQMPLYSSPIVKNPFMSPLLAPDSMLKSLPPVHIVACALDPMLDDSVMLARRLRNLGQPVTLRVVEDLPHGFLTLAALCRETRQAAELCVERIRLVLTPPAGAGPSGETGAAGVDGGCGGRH
Experiment: 3190.1: percent inhibition of hormone sensitive lipase at 10 μM (fluorochrome-labeled triacylglyceride emulsion)
Type: biochemical
Conditions: % activity relative to non-inhibited sample; 10 μM sample concentration; 30 min pre-incubation at 25° C., 120 min incubation at 37° C.; read-out: 3190.1 HSL_FL % ACTIVITY (%)
From the text: Materials. The Hormone-sensitive lipase was provided by Dr. Cecilia Holm, from Lund University Sweden or produced and purified by Novo Nordisk (NN) using the reagents and protocols used by Dr. Holm. The substrates used are: ^3H-labeled triolein (TO) from Amersham, Buckinghamshire, U.K. cat No. TRA191; 5-20 Ci/mmol dissolved in toluene, triolein (Sigma, Cat. No. T-1740), fluorochrome-labeled triacylglyceride (cis-octadec-9-enoic acid 2-[12-(7-nitrobenzo[1,2,5]oxadiazol-4-ylamino)dodecanoyloxy]-1-cis-octadec-9-enoyloxymethyl-ethyl ester) prepared by Novo Nordisk (NN) by conventional methods, and 1,3-(di[^3H]-stearin), 2-(PEG-Biotin)glycerol prepared in collaboration with Amersham Pharmacia Biotech, UK and described in WO 01/073442. Phosphatidyl choline (PC) and phosphatidyl inositol (PI) are from Sigma (St Luis Mo. cat. Nos. P-3556 and P-5954 respectively). All other reagents are of commercial grade and obtained from various commercial sources.
3190.1: Assay for determination of percent inhibition of hormone sensitive lipase by compound at 10 μM sample concentration.
A lipid emulsion with fluorochrome-labeled triacylglyceride and phospholipid is used as substrate with a standard concentration of highly purified HSL (12 μg/mL initial concentration corresponding to 600 ng/mL final concentration). BSA is added as product acceptor. The transfer of the fluorochrome from the lipid phase to the water (BSA) phase changes the fluorescent properties of the fluorochrome. The changes can be monitored on a fluorimeter with an excitation wavelength of 450 nm and an emission wavelength of 545 nm.
Compound and HSL (20 μL compound, 10 μL enzyme and 70 μL PED-BSA buffer) is pre-incubated for 30 min at 25° C. before addition of substrate (100 μL). Amount of formed product is measured after 120 min incubation at 37° C.
Results are given as percent activity relative to a non-inhibited sample (no compound).

Compound	activity at 10 µM
CC1CCN(Cc2ccc(C(=O)Nc3ccc(OC(=O)N(C)c4ccccc4)cc3)cc2)CC1 [Example 3, Methyl-phenyl-carbamic acid 4-[4-(4-methyl-piperidin-1-ylmethyl)-benzoylamino]-phenyl ester]	2%
CN(C(=O)Oc1ccc(NC(=O)c2ccc(CN3CCOCC3)cc2)cc1)c1ccccc1 [Example 2, Methyl-phenyl-carbamic acid 4-(4-morpholin-4-ylmethyl-benzoylamino)-phenyl ester]	4%
CN(C(=O)Oc1ccc(NC(=O)c2ccc(CN3CCCCC3)cc2)cc1)c1ccccc1 [Example 1, Methyl-phenyl-carbamic acid 4-(4-piperidin-1-ylmethyl-benzoylamino)-phenyl ester]	4%
